Experimental data: patent publication US20130029964A1, “[5, 6] HETEROCYCLIC COMPOUND” (DAIICHI SANKYO COMPANY, LIMITED, priority 2010, published 2013)

Tested on: ST2 cells, murine bone marrow-derived stromal cells
Test: Osteoblast differentiation test (ALP activity)
Assay type: cell-based
Conditions: Mus musculus, ST-2, 96 h, at 0.1 μg/mL, control group (0.1% DMSO) = 100%, four days of culturing, read-out: alkaline phosphatase activity
Protocol: ST2 cells, murine bone marrow-derived stromal cells, (obtained from RIKEN) were used.
In this test, α-MEM media (obtained from GIBCO BRL Cat. No. 10370-021) containing 10% (v/v) of inactivated calf serum (obtained from Hyclone Laboratories, Inc.) and 1% (v/v) of Penicillin-Streptomycin Liquid (obtained from GIBCO BRL Cat. No. 15140-122) (hereinbelow, abbreviated as 10%-FBS-αMEM) were used. In this test, all culturing was performed in a CO2 incubator (37° C., 95% humidity, 5% CO2).
The aforementioned cells were detached with 2 mL of a 0.25% trypsin solution (obtained from GIBCO BRL Cat. No. 15050-065) and dispersed in 10 mL of 10%-FBS-αMEM. Subsequently, the cells were collected by centrifugation (25° C., 800 rpm, five minutes). Then, a cell suspension containing 40000 of the cells/mL of 10%-FBS-αMEM was prepared. The cell suspension was then dispensed into 96-well plates (the product of Falcon), 100 μL per well, at a density of 4000 cells/well, followed by culturing for 24 hours. To the wells, except for the below-described well containing a control group, the compound was dispensed at final concentrations of 0.01, 0.03, 0.1, and 0.3 μg/ml. To the well of a control group, DMSO was dispensed at a final concentration of 0.1% (v/v). After four days of culturing, the activity of alkaline phosphatase (ALP) was measured in each group.
The measurement of ALP activity was performed as follows. That is, the medium in each well of the culture plates was completely removed. Each well was then washed by dispensing 100 μL of Dulbecco's phosphate buffer (obtained from GIBCO BRL Cat. No. 14190-144) and then removing it. A cell lysate solution containing 10 mM MgCl2 and 2% (v/v) TritonX-100 (Sigma) was prepared and dispensed at 50 μL/well, followed by stirring at room temperature for five minutes. An ALP substrate solution containing 50 mM diethanolamine (Wako Pure Chemical Industries, Ltd., Cat. No. 099-03112) and 20 mM p-nitrophenyl phosphate (Wako Pure Chemical Industries, Ltd., Cat. No. 147-02343) was prepared and dispensed at 50 μL/well, and the plates were left to stand at room temperature for 10 minutes. Subsequently, absorbance was measured by a microplate reader (Bio-Rad Laboratories, Inc.). Setting the measurement value of the control group of each plate at 100%, alkaline phosphatase activity (increase (%)) in the test compound-addition group was calculated, which was assessed as the degree of osteoblast differentiation.

| SMILES | activity at 0.1 µg/mL [%] |
| --- | --- |
| CS(=O)(=O)N1CCN(c2ccc3c(c2)ncn3-c2ccc(OCCO)cc2)CC1 [Example 59] | ≥ 200 |
| CC(=O)N1CC=C(c2ccc3c(c2)ncn3-c2ccc(OCCO)cc2)CC1 [Example 60] | ≥ 200 |
| CS(=O)(=O)N1CC=C(c2ccc3c(c2)ncn3-c2ccc(OCCO)cc2)CC1 [Example 61] | ≥ 200 |
| CC(=O)n1ccc(-c2ccc3c(c2)ncn3-c2ccc(OCCO)cc2)c1 [Example 62] | ≥ 200 |
| Cn1cc(-c2ccc3c(c2)ncn3-c2ccc(OCCO)cc2)cn1 [Example 63] | ≥ 200 |
| OCCOc1ccc(-n2cnc3cc(-c4nccs4)ccc32)cc1 [Example 64] | ≥ 200 |
| Cn1cc(-c2ccn3c(-c4ccc(OCCO)cc4)cnc3c2)cn1 [Example 65] | ≥ 200 |
| CC(=O)N1CC=C(c2ccn3c(-c4ccc(OCCO)cc4)cnc3c2)CC1 [Example 66] | ≥ 200 |
| Cn1ccc(-c2ccn3c(-c4ccc(OCCO)cc4)cnc3c2)c1 [Example 67] | ≥ 200 |
| CC(=O)N1CC=C(c2ccn3c(-c4ccc(OCCOC5CCOCC5)cc4)cnc3c2)CC1 [Example 68] | ≥ 200 |
| N#Cc1ccc2ncc(-c3ccc(OCCO)cc3)n2c1 [Example 69] | ≥ 200 |
| OCCOc1ccc(-c2cnc3cc(N4CCOCC4)ccn23)cc1 [Example 70] | ≥ 200 |
| OCCOc1ccc(-c2cnc3ccc(-c4ccncc4)cn23)cc1 [Example 71] | ≥ 200 |
| OCCOc1ccc(-c2cnc3cc(-c4ccncc4)ccn23)cc1 [Example 72] | ≥ 200 |
| c1cc(-c2ccn3c(-c4ccc(OCCOC5CCOCC5)cc4)cnc3c2)ccn1 [Example 74] | ≥ 200 |
| N#Cc1ccn2c(-c3ccc(OCCO)cc3)cnc2c1 [Example 75] | ≥ 200 |
| OCCOC1CCN(c2cnc3cc(-c4ccncc4)ccn23)CC1 [Example 76] | ≥ 200 |
| CC(=O)N1CC=C(c2ccn3c(N4CCC(OCCOC5CCOCC5)CC4)cnc3c2)CC1 [Example 77] | ≥ 200 |
| Clc1ccn2c(-c3ccc(OCCOC4CCOCC4)cc3)cnc2c1 [Example 78] | ≥ 200 |
| c1ccn2c(N3CCC(OCCOC4CCOCC4)CC3)cnc2c1 [Example 79] | ≥ 200 |
| Fc1ccc2ncc(-c3ccc(OCCOCC4CCOCC4)cc3)n2c1 [Example 80] | ≥ 200 |
| COCCOCCOc1ccc(-c2cnc3ccc(F)cn23)cc1 [Example 81] | ≥ 200 |
| Fc1ccc2ncc(-c3ccc(OCCOCCOC4CCOCC4)cc3)n2c1 [Example 82] | ≥ 200 |
| COC1COCC1OCCOc1ccc(-c2cnc3ccc(F)cn23)cc1 (stereo not shown) [Example 84] | ≥ 200 |
| OC1COCC1OCCOc1ccc(-c2cnc3ccc(F)cn23)cc1 (stereo not shown) [Example 86] | ≥ 200 |

| SMILES | activity at 0.1 µg/mL [%] |
| --- | --- |
| Fc1ccc2ncc(-c3ccc(OCCOC[C@H]4COCCO4)cc3)n2c1 [Example 87] | ≥ 200 |
| Fc1ccc2ncc(-c3ccc(OCCOC[C@@H]4COCCO4)cc3)n2c1 [Example 88] | ≥ 200 |
| N#Cc1ccc2ncc(-c3ccc(OCCOC4COCC4O)cc3)n2c1 (stereo not shown) [Example 91] | ≥ 200 |
| N#Cc1ccc2ncn(-c3ccc(OCCOC[C@H]4COCCO4)cc3)c2c1 [Example 92] | ≥ 200 |
| N#Cc1ccc2ncc(-c3ccc(OCCOC[C@H]4COCCO4)cc3)n2c1 [Example 93] | ≥ 200 |
| N#Cc1ccc2ncn(-c3ccc(OCCOC4COCC4O)cc3)c2c1 (stereo not shown) [Example 94] | ≥ 200 |
| FC(F)Oc1ccc2ncn(-c3ccc(OCCOC[C@H]4COCCO4)cc3)c2c1 [Example 95] | ≥ 200 |
| OC1COCC1OCCOc1ccc(-n2cnc3ccc(OC(F)F)cc32)cc1 (stereo not shown) [Example 96] | ≥ 200 |
| OCCNc1ccc(-n2cnc3ccccc32)cc1 [Example 97] | ≥ 200 |
| c1ccn2c(-c3ccc(OCCOC4CCOCC4)cc3)cnc2c1 [Example 98] | ≥ 200 |
| CC(C)(C)OC(=O)NCCOc1ccc(-n2cnc3ccccc32)cc1 [Example 99] | ≥ 200 |
| c1ccc2c(c1)ncn2-c1ccc(OCCOC2CCOCC2)cc1 [Example 100] | ≥ 200 |
| c1ccc2c(c1)ncn2-c1ccc(NCCOC2CCOCC2)cc1 [Example 101] | ≥ 200 |
| O=C(c1ccc(-c2ccn3c(-c4ccc(OCCO)cc4)cnc3c2)cc1)N1CCOCC1 [Example 102] | ≥ 200 |
| O=C(c1ccc(-c2ccn3c(N4CCC(OCCO)CC4)cnc3c2)cc1)N1CCOCC1 [Example 103] | ≥ 200 |
| Cn1cc(-c2ccn3c(N4CCC(OCCOC5CCOCC5)CC4)cnc3c2)cn1 [Example 104] | ≥ 200 |
| Cn1cc(-c2ccn3c(N4CCC(OCCO)CC4)cnc3c2)cn1 [Example 105] | ≥ 200 |
| CN(C)C(=O)c1cccc(-c2ccn3c(-c4ccc(OCCO)cc4)cnc3c2)c1 [Example 106] | ≥ 200 |
| CN(C)C(=O)c1ccc(-c2ccn3c(N4CCC(OCCO)CC4)cnc3c2)cc1 [Example 107] | ≥ 200 |
| c1ccn2c(-c3ccc(NCCOC4CCOCC4)cc3)cnc2c1 [Example 109] | ≥ 200 |
| Fc1ccc2ncc(-c3ccc(OCCO[C@@H]4CCOC4)cc3)n2c1 [Example 110] | ≥ 200 |
| Fc1ccc2ncc(-c3ccc(NCCOC4CCOCC4)cc3)n2c1 [Example 111] | ≥ 200 |
| c1cn(-c2ccc3ncc(-c4ccc(OCCOC5CCOCC5)cc4)n3c2)cn1 [Example 112] | ≥ 200 |
| COC1COCC1OCCOc1ccc(-c2cnc3ccc(C#N)cn23)cc1 (stereo not shown) [Example 114] | ≥ 200 |
| OCCOc1ccc(-c2cnc3ccccn23)cc1 [Example 115] | ≥ 200 |

| SMILES | activity at 0.1 µg/mL [%] |
| --- | --- |
| OCCOc1ccc(-c2cnc3ccc(Cl)cn23)cc1 [Example 116] | ≥ 200 |
| OCCOc1ccc(-c2cnn3ccccc23)cc1 [Example 117] | ≥ 200 |
| OCCNc1ccc(-c2cnc3ccc(Cl)cn23)cc1 [Example 118] | ≥ 200 |
| COc1ccn2c(-c3ccc(NCCO)cc3)cnc2c1 [Example 119] | ≥ 200 |
| COc1ccn2ncc(-c3ccc(OCCO)cc3)c2c1 [Example 120] | ≥ 200 |
| COc1ccn2ncc(-c3ccc(NCCO)cc3)c2c1 [Example 121] | ≥ 200 |
| OCCNc1ccc(-c2cnn3ccccc23)cc1 [Example 122] | ≥ 200 |
| COc1ccc2ncc(-c3ccc(NCCO)cc3)n2c1 [Example 123] | ≥ 200 |
| COc1ccc2ncc(-c3ccc(OCCO)cc3)n2c1 [Example 124] | ≥ 200 |
| COc1ccc2c(-c3ccc(OCCO)cc3)cnn2c1 [Example 125] | ≥ 200 |
| CCOc1ccc2c(-c3ccc(OCCO)cc3)cnn2c1 [Example 126] | ≥ 200 |
| c1cc(-c2ccc3c(-c4ccc(OCCOC5CCOCC5)cc4)cnn3c2)ccn1 [Example 127] | ≥ 200 |
| OCCOc1ccc(-n2cnc3cc(-c4ccccn4)ccc32)cc1 [Example 128] | ≥ 200 |
| CS(=O)(=O)c1ccc(-c2ccc3c(c2)ncn3-c2ccc(OCCO)cc2)cn1 [Example 129] | ≥ 200 |
| O=C(c1ccc(-c2ccc3c(c2)ncn3-c2ccc(OCCO)cc2)nc1)N1CCOCC1 [Example 130] | ≥ 200 |
| Clc1ccc2ncc(-c3ccc(OCCOC4CCOCC4)cc3)n2c1 [Example 131] | ≥ 200 |
| O=C(c1ccc(-c2ccn3c(-c4ccc(NCCOC5CCOCC5)cc4)cnc3c2)nc1)N1CCOCC1 [Example 132] | ≥ 200 |
| O=C(c1ccc(-c2ccn3c(-c4ccc(OCCOC5CCOCC5)cc4)cnc3c2)cn1)N1CCOCC1 [Example 133] | ≥ 200 |
| CN(C)S(=O)(=O)c1ccc(-c2ccn3c(-c4ccc(OCCO)cc4)cnc3c2)cc1 [Example 134] | ≥ 200 |
| Clc1ccc2ncc(-c3ccc(NCCOC4CCOCC4)cc3)n2c1 [Example 135] | ≥ 200 |
| Cn1cc(-c2ccc3ncc(-c4ccc(NCCOC5CCOCC5)cc4)n3c2)cn1 [Example 136] | ≥ 200 |
| O=C(C1CC1)N1CCC(OCCNc2ccc(-c3cnc4ccccn34)cc2)CC1 [Example 137] | ≥ 200 |
| O=C(C1CC1)N1CCC(OCCOC2CCN(c3cnc4ccc(Cl)cn34)CC2)CC1 [Example 138] | ≥ 200 |
